According to patent US6383773B2, “Penicillin conversion” (Massachusetts Institute of Technology, priority 1998, dated 2002):

Experiments:
[1] = system: S. clavuligerus NP1 resting cells; assay: Penicillin G ring expansion by resting cells, paper disc-agar diffusion bioassay (Example 1); format: cell-based; details: for DAOG produced: after 3-6 hours of reaction
Description: Resting Cells: From a seed culture (in MST), 0.5 ml was transferred to new flasks containing 40 ml of the same medium. Cells were grown at 30° C., 250 rpm for 24 h. Mycelia from each flask were washed twice, and finally, resuspended in 10 ml of distilled water. Four ml of this cell suspension were used in the reaction mixture.
Ring Expansion Reaction: We defined ring expansion reaction conditions as modifications of the standard reaction mixture for expandase reactions described by Maeda et al. (Maeda et al., Enzyme Microb. Technol. 17:231-34, 1995) except that penicillin G was used a substrate instead of penicillin N. Additions were made following the order established by Shen et al. (Shen et al., Enzyme Microb. Technol. 6:402-404, 1984. Reaction mixtures were incubated in test tubes (cell-free extract) or 250 ml baffled flasks (resting cells) at 220 rpm, 30° C. Reactions containing the protein extract were stopped at various times (see Table 1 and Figure Legends) by mixing 0.5 ml of assay solution with 0.5 ml of methanol. In the case of resting cells, samples were centrifuged to remove cells and supernatants were transferred to new tubes. Expandase activity was detected by paper disc-agar diffusion bioassay.
Detection of Expandase Activity: As mentioned above, expandase activity was detected by assaying production of a growth-inhibitory zone in a paper disc-agar diffusion bioassay. Paper discs were saturated with 200 μl of the reaction mixture (cell-free extracts or supernatant (resting cells) as follows. Two discs were superimposed and four 50 μl samples were applied. After each application, the discs were allowed to dry for 20 min at 37° C. under a laminar hood and, finally, they were placed on LB (1% tryptone, 0.5% NaCl, 0.5% yeast extract, 0.1% glucose) 0.8% agar medium seeded with E. coli ESS (a β-lactam supersensitive mutant), and the plates were incubated overnight at 37° C. The formation of DAOG and/or other cephalosporin(s) was determined by including 50,000 IU/ml of penicillinase (Difco Bacto penase concentrate, Difco Laboratories, Detroit, Mich.) in the assay plates. This penicillinase is a narrow spectrum β-lactamase that attacks penicillins but not cephalosporins. The diameters of zones of growth inhibition were measured and quantified with a calibration curve using DAOG as standard.

[2] = system: resting S. clavuligerus NP1 cells; assay: Penicillin G conversion by resting cells: buffer, preincubation, substrate concentration (Example 4); format: cell-based
Description: Microorganisms, Media, and Culture Conditions: S. clavuligerus mutant NP-1, described in Example 1 was used for these studies. A seed culture was made by inoculating a spore suspension (40 μl) into 40 ml MST medium in 250 ml baffled flasks, and incubating for 2 days at 30° C. and 250 rpm. One ml of the seed culture was used as inoculum for the main culture which contained 80 ml of MST medium in 500 ml unbaffled flasks. The flasks were incubated for 24 h at 30° C. and 250 rpm.
Preparation of Resting Cells: Cells were harvested by centrifugation at 14,000×g, for 15 min at 4° C. and washed twice with cold deionized water. They were resuspended in 10 ml of water.
Ring Expansion Reaction: The standard reaction mixture (10 ml) contained 0.05 M Tris-HCl pH 7.4, 8.0 mM KCl, 8.0 mM MgSO4.7H2O, 4.0 mM ascorbic acid, 1.8 mM FeSO4.7H2O, 1.28 mM α-ketoglutaric acid, 20 mg/ml penicillin G and 4.0 ml cell suspension. The order of addition of the components were as previously described (Shen et al., Enzyme Microb. Technol. 6:402-404, 1984). The reaction started when penicillin G was added to the reaction mixture which was incubated at 30° C. and 220 rpm.
Expandase Assay: Product formation was estimated by the paper disk-agar diffusion bioassay as described in example 1, using deacetoxycephalosporin G as standard. Escherichia coli strain Ess, a β-lactam supersensitive, mutant was used as the assay microorganism.

[3] = target: T1, S. clavuligerus expandase (Streptomyces clavuligerus, UniProt P18548); details: literature reports (Jensen 1982; Dotzlaf 1989; Yeh 1994; Maeda 1995); cited from earlier work
T1 construct: The cells were resuspended in the same buffer and disrupted by four 25-sec. sonication treatments; endogenous in cells; host or cells: S. clavuligerus mutant NP1, crude cell-free extract
T1 sequence (P18548 whole entry): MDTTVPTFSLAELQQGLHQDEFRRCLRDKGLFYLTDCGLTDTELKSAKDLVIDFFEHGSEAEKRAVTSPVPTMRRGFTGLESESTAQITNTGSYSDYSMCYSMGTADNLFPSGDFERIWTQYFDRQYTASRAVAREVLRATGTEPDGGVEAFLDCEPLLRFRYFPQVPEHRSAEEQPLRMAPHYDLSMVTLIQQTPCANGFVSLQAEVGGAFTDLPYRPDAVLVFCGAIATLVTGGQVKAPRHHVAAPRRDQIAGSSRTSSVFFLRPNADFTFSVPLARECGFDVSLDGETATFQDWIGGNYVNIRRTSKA

Structure (SMILES): CC1(C)S[C@@H]2[C@H](NC(=O)Cc3ccccc3)C(=O)N2[C@H]1C(=O)O [Penicillin G, penicillin G]
- μg DAOG/ml ([1]; resting cells 13 mg/ml dry cell weight, 2 mg/ml penicillin G, 2 h, cofactor omitted: ATP (0.7 mM)): 10.0 μg DAOG/ml
- μg DAOG/ml ([1]; resting cells 13 mg/ml dry cell weight, 2 mg/ml penicillin G, 2 h, cofactor omitted: Ascorbic acid (4 mM)): 3.0 μg DAOG/ml
- μg DAOG/ml ([1]; resting cells 13 mg/ml dry cell weight, 2 mg/ml penicillin G, 2 h, cofactor omitted: DTT (16 mM)): 15.5 μg DAOG/ml
- μg DAOG/ml ([1]; resting cells 13 mg/ml dry cell weight, 2 mg/ml penicillin G, 2 h, cofactor omitted: FeSO4.7H2O (1.8 mM)): 3.2 μg DAOG/ml
- μg DAOG/ml ([1]; resting cells 13 mg/ml dry cell weight, 2 mg/ml penicillin G, 2 h, cofactor omitted: KCl (8 mM)): 11.5 μg DAOG/ml
- μg DAOG/ml ([1]; resting cells 13 mg/ml dry cell weight, 2 mg/ml penicillin G, 2 h, cofactor omitted: MgSO4.7H2O (8 mM)): 10.1 μg DAOG/ml
- μg DAOG/ml ([1]; resting cells 13 mg/ml dry cell weight, 2 mg/ml penicillin G, 2 h, cofactor omitted: None): 10.5 μg DAOG/ml
- μg DAOG/ml ([1]; resting cells 13 mg/ml dry cell weight, 2 mg/ml penicillin G, 2 h, cofactor omitted: α-ketoglutarate (1.28 mM)): 3.7 μg DAOG/ml
- DAOG produced ([1]; resting cells, Maeda et al. reaction conditions (0.04 mM FeSO4, 0.64 mM α-ketoglutarate)): about 6 μg/ml
- DAOG produced ([1]; resting cells, inventive conditions (1.8 mM FeSO4, 1.28 mM α-ketoglutarate)): about 19 μg/ml
- DAOG produced relative to complete reaction ([1]; resting cells, two hours, omission of Fe2+, α-ketoglutarate, or ascorbic acid): about 30%
- μg DAOG/ml ([1]; resting cells, ATP concentration 0 (mM)): 6.6 μg DAOG/ml
- μg DAOG/ml ([1]; resting cells, ATP concentration 0.14 (mM)): 6.4 μg DAOG/ml
- μg DAOG/ml ([1]; resting cells, ATP concentration 0.35 (mM)): 6.4 μg DAOG/ml
- μg DAOG/ml ([1]; resting cells, ATP concentration 0.7 (mM)): 6.6 μg DAOG/ml
- μg DAOG/ml ([1]; resting cells, ATP concentration 2.4 (mM)): 6.6 μg DAOG/ml
- μg DAOG/ml ([1]; resting cells, ATP concentration 3.5 (mM)): 4.7 μg DAOG/ml
- μg DAOG/ml ([1]; resting cells, Ascorbate concentration 0 (mM)): 2.4 μg DAOG/ml
- μg DAOG/ml ([1]; resting cells, Ascorbate concentration 0.8 (mM)): 4.0 μg DAOG/ml
- μg DAOG/ml ([1]; resting cells, Ascorbate concentration 2 (mM)): 6.0 μg DAOG/ml
- μg DAOG/ml ([1]; resting cells, Ascorbate concentration 4 (mM)): 6.4 μg DAOG/ml
- μg DAOG/ml ([1]; resting cells, Ascorbate concentration 8 (mM)): 6.4 μg DAOG/ml
- increase of DAOG production ([1]; resting cells, omission of DTT): approximately 50%
- percent conversion ([2]; 0.015 mg/ml substrate, subsequent experiments): ≤ 16.5%
- percent conversion ([2]; 0.063 mg/ml of penicillin G): about 9.0%
- percent conversion ([2]; 2 mg/ml of penicillin G): about 1.0%
- percent conversion ([2]; 8 mg/ml of penicillin G): about 0.4%
- increase of cephalosporin production versus 0.05 M Tris-HCl pH 7.4 ([2]; 0.05 M MOPS pH 6.5 or 0.05 M HEPES pH 6.5): more than two-fold
- penicillin G conversion ([2]; cells preincubated 3 hours with Fe2+ and ascorbic acid, with or without α-ketoglutarate): virtually eliminated
- reduction of total production ([2]; cells preincubated 3 hours with either buffer, Fe2+, ascorbic acid, or α-ketoglutarate): about 50%
- ring expansion [3]: not
